Patent US6403629B2, “Heterocyclic compounds for therapeutic use” (J.B. Chemical and Pharmaceuticals Limited, priority 2000, dated 2002)

| melting point [°C] | SMILES |
| --- | --- |
| 83 | Cc1ccc(-c2cc(C(F)(F)F)nn2-c2ccc(F)cc2F)cc1 [Example 2C, 1-(2,4-Difluorophenyl)-5-(4-methylphenyl)-3-(trifluoromethyl)pyrazole] |
| 45 | Cc1ccc(-c2cc(C(F)(F)F)nn2-c2cc(C)ccc2F)cc1 [Example 2H, 1-(2-Fluoro-5-methylphenyl)-5-(4-methylphenyl)-3-(trifluoromethyl)pyrazole] |
